Experimental findings from patent publication US9006294B2, “Oral pharmaceutical formulation of pelubiprofen with improved dissolution rate and stability” (Daewon Pharm., Co., Ltd., priority 2008, dated 2015) are described below.

Data set [1] in a line: Related compounds in pelubiprofen combined with single additives, stored two weeks at 60° C. The data set is classed as physicochemical. The note with it: pelubiprofen 20 mg plus additive. The protocol:
Increased amounts of related compounds were measured after oral pharmaceutical formulations with different mean particle sizes (27.4 μm, 45.6 μm) of pelubiprofen in combination with different amounts of various additives were stored for two weeks under the severe condition of 60° C.

Data set [2] in a line: Dissolution test of pelubiprofen tablets, Paddle Method of Korean Pharmacopoeia. Type of data set: physicochemical. An excerpt:
In accordance with the present invention, mean particle size of pelubiprofen preferably ranges from 1 to 30 μm. For example, pelubiprofen particles are difficult to prepare when less than 1 μm in mean particle size, although their dissolution rate increases thanks to the increased surface area thereof. On the other hand, pelubiprofen particles exceeding 30 μm in size have a decreased dissolution rate.
Pelubiprofen tablets differing in the mean particle size of pelubiprofen and the kinds and content of additives were measured for dissolution rate as follows.
A dissolution test was performed on the pelubiprofen tablets prepared in Examples 1 to 20 and Comparative Examples 1 to 18.
The dissolution test was performed according to the procedure of Paddle Method described in Korean Pharmacopoeia. In this regard, one tablet was tested in 900 mL of a dissolution medium (pH 1.2) at 37±0.5° C., with a maintenance of paddle rotation speed at 50 rpm. After a 45-min test, the dissolution medium was taken and filtered through a 0.45 μm filter, followed by the UV analysis of the filtrate.

For `CC(C(=O)O)c1ccc(/C=C2\CCCCC2=O)cc1` (centres unmarked) [pelubiprofen, 2-[4-(2-oxocyclohexylidenemethyl)phenyl]propionic acid], the “Increase of Related Cpd.” value in data set [1] (MPS of pelubiprofen 27.4 μm) came out at 9.5%; in data set [1] (MPS of pelubiprofen 45.6 μm), 2.6%. Moreover, the “Total Related Cpd.” value is 0.461% in data set [1] (MPS of pelubiprofen 27.4 μm) and 0.432% in data set [1] (MPS of pelubiprofen 45.6 μm). Besides, the dissolution rate in data set [2] (mean particle size of pelubiprofen 9.3 μm) was 85.8%; in data set [2] (mean particle size of pelubiprofen 19.1 μm) it was 75.3%; in data set [2] (mean particle size of pelubiprofen 27.4 μm), 70.4%; in data set [2] (mean particle size of pelubiprofen 45.6 μm), 41.4%.
